Reference: patent US10202361B2, “Pyridazinones as herbicides” (E I DU PONT DE NEMOURS AND COMPANY, priority 2014, dated 2019)

Assays:
Assay type in all cases: in vivo
[1] = test system: rice (Oryza sativa); assay: Test B flooded paddy test; details: Oryza sativa, 312 h, Flood, scale of 0 to 100, 0 is no effect, 100 is complete control, 13 to 15 d, read-out: Plant response rating, Rice; for plant injury at 250 g/ha: 250 g ai/ha; for plant injury at 125 g/ha: 125 g ai/ha
In short: (§1)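 Visual scores from 0 (no effect) to 100 (complete control) are relative to controls, assessed 13 to 15 d after treatment under greenhouse conditions. Treatment went into the paddy water of pots flooded 3 cm deep, with seedlings at the 2-leaf stage and flooding maintained.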

[2] = test system: sedge, umbrella (small-flower umbrella sedge, Cyperus difformis); assay: Test B flooded paddy test; details: Cyperus difformis, 312 h, Flood, scale of 0 to 100, 0 is no effect, 100 is complete control, 13 to 15 d, read-out: Plant response rating, Sedge, Umbrella; for pest or weed control at 250 g/ha: 250 g ai/ha; for pest or weed control at 125 g/ha: 125 g ai/ha
In short: as §1

[3] = test system: barnyardgrass (Echinochloa crus-galli); assay: Test B flooded paddy test; details: Echinochloa crus-galli, 312 h, Flood, scale of 0 to 100, 0 is no effect, 100 is complete control, 13 to 15 d, read-out: Plant response rating, Barnyardgrass; for pest or weed control at 250 g/ha: 250 g ai/ha; for pest or weed control at 125 g/ha: 125 g ai/ha
In short: as §1

[4] = test system: ducksalad (Heteranthera limosa); assay: Test B flooded paddy test; details: Heteranthera limosa, 312 h, Flood, scale of 0 to 100, 0 is no effect, 100 is complete control, 13 to 15 d, read-out: Plant response rating, Ducksalad; for pest or weed control at 250 g/ha: 250 g ai/ha; for pest or weed control at 125 g/ha: 125 g ai/ha
In short: as §1

[5] = test system: blackgrass (Alopecurus myosuroides); assay: Test C pre-/postemergence greenhouse herbicide test; details: Preemergence; for pest or weed control at 31 g/ha: 31 g ai/ha; for pest or weed control at 62 g/ha: 62 g ai/ha; for Plant response rating, Blackgrass: visual rating on scale 0 (no effect) to 100 (complete control), 13 to 15 d
Description: (§2) Seeds of plant species selected from blackgrass (Alopecurus myosuroides), bromegrass, downy (downy bromegrass, Bromus tectorum), foxtail, green (green foxtail, Setaria viridis), ryegrass, Italian (Italian ryegrass, Lolium multiflorum), wheat (winter wheat, Triticum aestivum), oat, wild (wild oat, Avena fatua), galium (catchweed bedstraw, Galium aparine), bermudagrass (Cynodon dactylon), surinam grass (Brachiaria decumbens), cocklebur (common cocklebur, Xanthium strumarium), corn (Zea mays), crabgrass, large (large crabgrass, Digitaria sanguinalis), cupgrass, woolly (woolly cupgrass, Eriochloa villosa), foxtail, giant (giant foxtail, Setaria faberii), goosegrass (Eleusine indica), johnsongrass (Sorghum halepense), kochia (Kochia scoparia), lambsquarters (Chenopodium album), morningglory (Ipomoea coccinea), nightshade (eastern black nightshade, Solanum ptycanthum), nutsedge, yellow (yellow nutsedge, Cyperus esculentus), pigweed (Amaranthus retroflexus), ragweed (common ragweed, Ambrosia elatior), soybean (Glycine max), sunflower (common oilseed sunflower, Helianthus annuus), Russian thistle (Salsola kali), barnyardgrass (Echinochloa crus-galli), oilseed rape (Brassica napus), waterhemp (common waterhemp, Amaranthus rudis), and velvetleaf (Abutilon theophrasti) were planted into a blend of loam soil and sand and treated preemergence with test chemicals formulated in a non-phytotoxic solvent mixture which included a surfactant.
(§3) At the same time, plants selected from these crop and weed species and also barley (winter barley, Hordeum vulgare), canarygrass (Phalaris minor), windgrass (Apera spica-venti), deadnettle (henbit deadnettle, Lamium amplexicaule), and chickweed (common chickweed, Stellaria media) were planted in pots containing Redi-Earth® planting medium (Scotts Company, 14111 Scottslawn Road, Marysville, Ohio 43041) comprising spaghnum peat moss, vermiculite, wetting agent and starter nutrients and treated with postemergence applications of test chemicals formulated in the same manner. Plants ranged in height from 2 to 18 cm (1- to 4-leaf stage) for postemergence treatments. Treated plants and controls were maintained in a greenhouse for 13 to 15 d, after which time all species were compared to controls and visually evaluated. Plant response ratings, summarized in Table C, are based on a scale of 0 to 100 where 0 is no effect and 100 is complete control. A dash (-) response means no test result.

[6] = test system: oilseed rape (Brassica napus); assay: as above; details: Preemergence; for Plant response rating: Oilseed Rape; for Plant response rating, Oilseed Rape: visual rating on scale 0 (no effect) to 100 (complete control), 13 to 15 d
Description: as §2, §3

[7] = test system: crabgrass, Large (large crabgrass, Digitaria sanguinalis); assay: as above; details: Preemergence; for pest or weed control at 31 g/ha: 31 g ai/ha; for pest or weed control at 62 g/ha: 62 g ai/ha; for Plant response rating, Crabgrass, Large: visual rating on scale 0 (no effect) to 100 (complete control), 13 to 15 d
Description: as §2, §3

[8] = test system: ryegrass, Italian (Italian ryegrass, Lolium multiflorum); assay: as above; details: Preemergence; for pest or weed control at 31 g/ha: 31 g ai/ha; for pest or weed control at 62 g/ha: 62 g ai/ha; for Plant response rating, Ryegrass, Italian: visual rating on scale 0 (no effect) to 100 (complete control), 13 to 15 d
Description: as §2, §3

[9] = test system: foxtail, giant (giant foxtail, Setaria faberii); assay: as above; details: Preemergence; for Plant response rating, Foxtail, Giant: visual rating on scale 0 (no effect) to 100 (complete control), 13 to 15 d; for pest or weed control at 31 g/ha: 31 g ai/ha; for pest or weed control at 62 g/ha: 62 g ai/ha
Description: as §2, §3

[10] = test system: velvetleaf (Abutilon theophrasti); assay: as above; details: Preemergence; for pest or weed control at 62 g/ha: 62 g ai/ha; for Plant response rating, Velvetleaf: visual rating on scale 0 (no effect) to 100 (complete control), 13 to 15 d
Description: as §2, §3

[11] = Alopecurus myosuroides, pre-emergence, Blackgrass, read-out: Plant response rating
[12] = Digitaria sanguinalis, pre-emergence, Crabgrass, Large, read-out: Plant response rating
[13] = Lolium multiflorum, pre-emergence, Ryegrass, Italian, read-out: Plant response rating
[14] = Setaria faberi, pre-emergence, Foxtail, Giant, read-out: Plant response rating
[15] = Abutilon theophrasti, pre-emergence, Velvetleaf, read-out: Plant response rating

SMILES	plant injury at 250 g/ha [1]	pest or weed control at 250 g/ha [2]	pest or weed control at 250 g/ha [3]	pest or weed control at 250 g/ha [4]	plant injury at 125 g/ha [1]	pest or weed control at 125 g/ha [2]	pest or weed control at 125 g/ha [3]	pest or weed control at 125 g/ha [4]	pest or weed control at 31 g/ha [5, 11]	pest or weed control at 62 g/ha [5, 11]	Plant response rating ([6]; 31 g ai/ha)	Plant response rating ([6]; 62 g ai/ha)	pest or weed control at 31 g/ha [7, 12]	pest or weed control at 62 g/ha [7, 12]	pest or weed control at 31 g/ha [8, 13]	pest or weed control at 62 g/ha [8, 13]	pest or weed control at 31 g/ha [9, 14]	pest or weed control at 62 g/ha [9, 14]	pest or weed control at 62 g/ha [10, 15]	also measured
Cc1cc(=O)n(-c2ccc(F)cc2)nc1Cn1ccc(C(F)(F)F)n1 [Compound 3, 2-(4-fluorophenyl)-5-methyl-6-[[3-(trifluoromethyl)-1H-pyrazol-1-yl]methyl]-3(2H)-pyridazinone]	0%	0%	0%	0%	–	–	–	–	–	–	–	–	–	–	–	–	–	–	–	–
Cc1cc(=O)n(-c2ccc(C(F)(F)F)cc2)nc1Oc1ccnc(C(F)(F)F)c1 [Compound 5, 5-methyl-2-[4-(trifluoromethyl)phenyl]-6-[[2-(trifluoromethyl)-4-pyridinyl]oxy]-3(2H)-pyridazinone]	–	–	–	–	55%	80%	55%	75%	–	–	–	–	–	–	–	–	–	–	–	–
CCOc1cc(=O)n(-c2ccc(F)cc2)nc1C(=O)c1ccnc(C(F)(F)F)c1 [Compound 22, 5-ethoxy-2-(4-fluorophenyl)-6-[[2-(trifluoromethyl)-4-pyridinyl]carbonyl]-3(2H)-pyridazinone]	10%	80%	10%	70%	–	–	–	–	–	–	–	–	–	–	–	–	–	–	–	–
CCOc1cc(=O)n(-c2ccc(F)cc2)nc1C(O)c1ccnc(C(F)(F)F)c1 (stereo not drawn) [Compound 23, 5-ethoxy-2-(4-fluorophenyl)-6-[hydroxy[2-(trifluoromethyl)-4-pyridinyl]methyl]-3(2H)-pyridazinone]	10%	70%	10%	80%	–	–	–	–	50%	5%	80	85	65%	100%	0%	5%	75%	90%	100%	Plant response rating, Blackgrass ([5]; 8 g ai/ha): 0; Plant response rating, Blackgrass ([5]; 16 g ai/ha): 0; Plant response rating, Oilseed Rape ([6]; 8 g ai/ha): 5; Plant response rating, Oilseed Rape ([6]; 16 g ai/ha): 5; Plant response rating, Crabgrass, Large ([7]; 8 g ai/ha): 5; Plant response rating, Crabgrass, Large ([7]; 16 g ai/ha): 50; Plant response rating, Ryegrass, Italian ([8]; 8 g ai/ha): 0; Plant response rating, Ryegrass, Italian ([8]; 16 g ai/ha): 0; Plant response rating, Foxtail, Giant ([9]; 8 g ai/ha): 5; Plant response rating, Foxtail, Giant ([9]; 16 g ai/ha): 55; Plant response rating, Velvetleaf ([10]; 8 g ai/ha): 0; Plant response rating, Velvetleaf ([10]; 16 g ai/ha): 15
CCOc1cc(=O)n(-c2ccc(F)cc2)nc1Cc1ccnc(C(F)(F)F)c1 [Compound 25, 5-ethoxy-2-(4-fluorophenyl)-6-[[2-(trifluoromethyl)-4-pyridinyl]methyl]-3 (2H)-pyridazinone]	–	–	–	–	0%	75%	0%	0%	40%	85%	50	95	100%	100%	20%	40%	100%	100%	100%	pest or weed control at 125 g/ha ([5]; Alopecurus myosuroides, pre-emergence, Blackgrass, 125 g ai/ha, read-out: Plant response rating): 90%; pest or weed control at 250 g/ha ([5]; Alopecurus myosuroides, pre-emergence, Blackgrass, 250 g ai/ha, read-out: Plant response rating): 90%; Plant response rating ([6]; 125 g ai/ha): 95; Plant response rating ([6]; 250 g ai/ha): 95; pest or weed control at 125 g/ha ([7]; Digitaria sanguinalis, pre-emergence, Crabgrass, Large, 125 g ai/ha, read-out: Plant response rating): 100%; pest or weed control at 250 g/ha ([7]; Digitaria sanguinalis, pre-emergence, Crabgrass, Large, 250 g ai/ha, read-out: Plant response rating): 100%; pest or weed control at 125 g/ha ([8]; Lolium multiflorum, pre-emergence, Ryegrass, Italian, 125 g ai/ha, read-out: Plant response rating): 90%; pest or weed control at 250 g/ha ([8]; Lolium multiflorum, pre-emergence, Ryegrass, Italian, 250 g ai/ha, read-out: Plant response rating): 90%; pest or weed control at 125 g/ha ([9]; Setaria faberi, pre-emergence, Foxtail, Giant, 125 g ai/ha, read-out: Plant response rating): 100%; pest or weed control at 250 g/ha ([9]; Setaria faberi, pre-emergence, Foxtail, Giant, 250 g ai/ha, read-out: Plant response rating): 100%; pest or weed control at 125 g/ha ([10]; Abutilon theophrasti, pre-emergence, Velvetleaf, 125 g ai/ha, read-out: Plant response rating): 70%; pest or weed control at 250 g/ha ([10]; Abutilon theophrasti, pre-emergence, Velvetleaf, 250 g ai/ha, read-out: Plant response rating): 95%
